The values below are quoted from earlier work in patent US20110159054A1, “NANOPARTICULATE BICALUTAMIDE FORMULATIONS” (Elan Pharma International Ltd., priority 2004, published 2011).

The conditions of the data set: 37° C., practically insoluble.

Molecules are shown by their SMILES.

Consider `CC(O)(CS(=O)(=O)c1ccc(F)cc1)C(=O)Nc1ccc(C#N)c(C(F)(F)F)c1` (racemic) [Bicalutamide], for which the solubility in water is 5 mg per 1000 mL.
